From ChEMBL document CHEMBL1201862, “PubChem BioAssay data set” (2004)
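Interpolation was linear, between the two tested concentrations surrounding the appropriate level; five concentrations were tested over 48 hours in 96-well plates. GI50 = concentration required for 50% inhibition of growth.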 The source made the active and inactive calls. Cut-off read from the data, not from the text of the source: active = GI50 up to about 1.1 µM and inactive = higher.

How the values were obtained:
Experiment in all cases: NCI-60 cell line screen, 48 h
COLO 205 = test system: COLO 205
M14 = test system: M14
SK-MEL-2 = test system: SK-MEL-2
SF-268 = test system: SF-268
SW-620 = test system: SW-620
SN12C = test system: SN12C
786-0 = test system: 786-0
UACC-257 = test system: UACC-257
A549 = test system: A549
SNB-75 = test system: SNB-75
OVCAR-5 = test system: OVCAR-5
TK-10 = test system: TK-10
SF-539 = test system: SF-539
Malme-3M = test system: Malme-3M
MDA-MB-435 = test system: MDA-MB-435
EKVX = test system: EKVX
PC-3 = test system: PC-3
HT-29 = test system: HT-29
SNB-19 = test system: SNB-19
MDA-N = test system: MDA-N
RXF 393 = test system: RXF 393
U-251 = test system: U-251
SK-OV-3 = test system: SK-OV-3
SR = test system: SR
K562 = test system: K562
LOX IMVI = test system: LOX IMVI
HCT-116 = test system: HCT-116
A498 = test system: A498
MOLT-4 = test system: MOLT-4
UACC-62 = test system: UACC-62
MDA-MB-231 = test system: MDA-MB-231
HCC 2998 = test system: HCC 2998
OVCAR-3 = test system: OVCAR-3
Hs-578T = test system: Hs-578T
NCI/ADR-RES = test system: NCI/ADR-RES
NCI-H226 = test system: NCI-H226
CCRF-CEM = test system: CCRF-CEM
UO-31 = test system: UO-31
DU-145 = test system: DU-145
OVCAR-8 = test system: OVCAR-8
RPMI-8226 = test system: RPMI-8226
MCF7 = test system: MCF7
KM12 = test system: KM12
HL-60 = test system: HL-60
SK-MEL-28 = test system: SK-MEL-28
NCI-H23 = test system: NCI-H23
OVCAR-4 = test system: OVCAR-4
BT-549 = test system: BT-549
T47D = test system: T47D
CAKI-1 = test system: CAKI-1
HCT-15 = test system: HCT-15
NCI-H460 = test system: NCI-H460

Measured: GI50

COC(=O)N1N=C(c2ccccc2)C1c1ccccc1 (configuration not stated)
39.5 µM: HCT-15
inactive: COLO 205 27 µM | M14 34.5 µM | SK-MEL-2 34.5 µM | SF-268 62.7 µM | SW-620 48.6 µM | SN12C 42.4 µM | 786-0 35.2 µM | UACC-257 24.5 µM | A549 31 µM | SNB-75 36 µM | OVCAR-5 78.5 µM | TK-10 70.1 µM | SF-539 22.9 µM | Malme-3M 40.7 µM | MDA-MB-435 33.7 µM | EKVX 42.5 µM | PC-3 26.9 µM | HT-29 32.1 µM | SNB-19 29.5 µM | MDA-N 31.1 µM | RXF 393 31.7 µM | U-251 42.7 µM | SK-OV-3 69.3 µM | SR 31.9 µM | K562 23.8 µM | LOX IMVI 26.2 µM | HCT-116 33.3 µM | A498 24 µM | MOLT-4 28.1 µM | UACC-62 22 µM | MDA-MB-231 24.6 µM | HCC 2998 32.1 µM | OVCAR-3 37.9 µM | Hs-578T 71 µM | NCI/ADR-RES 23.2 µM | NCI-H226 21.8 µM | CCRF-CEM 31.9 µM | UO-31 13.7 µM | DU-145 49.2 µM | OVCAR-8 27.5 µM | RPMI-8226 26.7 µM | MCF7 28.9 µM | KM12 47.4 µM | HL-60 27.2 µM | SK-MEL-28 39.7 µM | NCI-H23 24.8 µM | OVCAR-4 25.8 µM | BT-549 30.5 µM | T47D 25.4 µM | CAKI-1 33.6 µM | NCI-H460 30.8 µM
